In the NIST ThermoML archive (doi:10.1021/je100198g):
± gives the expanded uncertainty stated by the source.

Details: 297.9 K, Liquid mixture 1, Pendant drop shape

Compound O=C=O [carbon dioxide] + O has an interfacial tension (7020 kPa) of 31.9 ± 0.7 mN/m, an interfacial tension (8020 kPa) of 31.9 ± 0.7 mN/m and an interfacial tension (10010 kPa) of 31.8 ± 0.7 mN/m. It also gave an interfacial tension (14990 kPa) of 30.6 ± 0.7 mN/m and an interfacial tension (19990 kPa) of 30 ± 0.7 mN/m.
